Test results reported in US20090170886A1 (Pfizer Inc, priority 2005, published 2009).
Residue numbers refer to the chain shown, from its start. Read-outs that look alike come from different tables or passages of the source.

Key:
[1] = molecular target: T1, hAR (human androgen receptor, baculovirus/Sf9 generated extracts) (Homo sapiens, UniProt P10275); test: AR Binding Assay (competitive binding with 3H-DHT tracer); conditions: 1 nM 3H-DHT, one hour at 4° C., mean of multiple tests
T1 construct: made in house; host or cells: baculovirus/Sf9 insect cells (crude extract)
T1 sequence (P10275 1-920): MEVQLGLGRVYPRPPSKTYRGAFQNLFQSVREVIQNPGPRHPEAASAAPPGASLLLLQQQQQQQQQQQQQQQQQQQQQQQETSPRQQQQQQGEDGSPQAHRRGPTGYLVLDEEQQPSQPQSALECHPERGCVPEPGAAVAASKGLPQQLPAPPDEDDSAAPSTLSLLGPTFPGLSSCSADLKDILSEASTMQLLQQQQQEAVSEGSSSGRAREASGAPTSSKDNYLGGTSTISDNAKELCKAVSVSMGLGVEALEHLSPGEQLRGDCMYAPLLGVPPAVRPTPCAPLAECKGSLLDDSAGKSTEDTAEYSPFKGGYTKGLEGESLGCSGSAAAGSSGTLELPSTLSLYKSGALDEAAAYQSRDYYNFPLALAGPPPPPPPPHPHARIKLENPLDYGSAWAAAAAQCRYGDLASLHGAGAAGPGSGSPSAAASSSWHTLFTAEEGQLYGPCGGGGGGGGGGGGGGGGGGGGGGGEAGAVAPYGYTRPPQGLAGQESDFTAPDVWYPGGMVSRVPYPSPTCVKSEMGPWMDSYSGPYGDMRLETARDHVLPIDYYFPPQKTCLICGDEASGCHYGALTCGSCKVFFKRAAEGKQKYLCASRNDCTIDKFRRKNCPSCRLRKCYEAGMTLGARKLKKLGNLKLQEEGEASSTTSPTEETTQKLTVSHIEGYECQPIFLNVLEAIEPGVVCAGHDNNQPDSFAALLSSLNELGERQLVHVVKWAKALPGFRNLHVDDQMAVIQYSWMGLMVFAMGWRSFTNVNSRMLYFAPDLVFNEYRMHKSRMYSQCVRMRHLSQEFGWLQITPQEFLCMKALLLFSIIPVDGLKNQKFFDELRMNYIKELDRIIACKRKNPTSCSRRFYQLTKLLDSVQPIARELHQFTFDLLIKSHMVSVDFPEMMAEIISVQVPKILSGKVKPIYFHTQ
Method: The compounds of Formula I have affinity for the androgen receptor. […] The description below describes how the assay was carried out.
Competitive binding analysis was performed on baculovirus/Sf9 generated hAR extracts in the presence or absence of different concentrations of test agent and a fixed concentration of ^3H-dihydrotestosterone (^3H-DHT) as tracer. This binding assay method is a modification of a protocol previously described (Liao S., et. al., J. Steroid Biochem., 20:11-17, 1984). Briefly, progressively decreasing concentrations of compounds are incubated in the presence of hAR extract (Chang et al., P.N.A.S., Vol. 89, pp. 5546-5950, 1992), hydroxylapatite, and 1 nM ^3H-DHT for one hour at 4° C. Subsequently, the binding reactions are washed three times to completely remove excess unbound ^3H-DHT. hAR bound ^3H-DHT levels are determined in the presence of compounds (i.e. competitive binding) and compared to levels bound when no competitor is present (i.e. maximum binding). Compound binding affinity to the hAR is expressed as the concentration of compound at which one half of the maximum binding is inhibited. Table II below provides the results that were obtained for selected compounds (reported data is the mean of multiple tests as shown below).

[2] = molecular target: T2, androgen receptor in MDA-MB453-MMTV clone 54-19 cells (Homo sapiens, UniProt P10275); test: AR Antagonist Cell Assay (MMTV-luciferase reporter, DHT-induced); format: cell-based; conditions: MDA-MB453-MMTV clone 54-19, 100 pM DHT, 17 hr; mean of multiple tests
T2 sequence (P10275 1-920 Q868H): T1 sequence (P10275 1-920) with Q868H
Method: The compounds ability to antagonize the effects of androgen on the androgen receptor were determined in a whole cell assay as described immediately below.
Cell line: MDA-MB453-MMTV clone 54-19. This cell line is a stable transfected cell line with MDA-MB453 cell background (a human breast tumor cell line expressing androgen receptor). A MMTV minimal promoter containing ARE was first cloned in front of a firefly luciferase reporter gene. Then the cascade was cloned into transfection vector pUV120puro. Electroporation method was used for transfecting MDA-MB-453 cell. Puromycin resistant stable cell line was selected.
Culture medium: DMEM (high glucose, Gibco cat #: 11960-044), 10% FBS, and 1% L-glutamine
Plating medium: DMEM (phenol red free), 10% charcoal treated HyClone serum, 1% L-glutamine
Assay medium: DMEM (phenol red free), 1% charcoal treated HyClone serum, 1% L-glutamine, and 1% penicillin/streptomycin
3× luciferase buffer: 2% beta-mercaptoethanol, 0.6% ATP, 0.0135% luciferine in cell lysis buffer
Cells are maintained in culture medium, splitting cells when they reach 80-90% confluence. To test compounds, 10,000 cells/well are plated to opaque 96 cell culture plate in 100 ul/well plating medium, culture for overnight at 37° C. in cell culture incubator. Carefully remove plating medium, then add 80 ul/well of pre-warmed assay medium, add 10 ul/well testing compound (final concentration at) 1000 nM, 200 nM, 40 nM, 8 nM, 1.6 nM, and 0.32 nM), incubate at 37° C. for 30 minutes. Add 10 ul/well freshly prepared DHT (final concentration at 100 pM) to each well, incubate at 37° C. for 17 hr (overnight). Add 50 ul/well 3× luciferase buffer, incubate at room temperature for 5 minutes, then count on Luminometer. The fold induction over background by 100 pM DHT in the absence of testing compounds is standardized as 100% and experimental result is expressed as percentage of inhibition by testing compounds.
The results are reported as the mean of multiple tests as described below (the numbers of tests are indicated in the footnote). ND denotes that the compound was not tested.

[3] = hAR extract, read-out: AR Binding IC50

Row | SMILES | IC50 ([1]; AR Binding IC50, hAR extract) [µM] | IC50 [2] [µM] | IC50 [1, 3] [µM]
1 | CC(Oc1ccc(C#N)c(C(F)(F)F)c1)c1cccc(O)c1 (racemic) [Example 8, 4-[1-(3-Hydroxyphenyl)ethoxy]-2-(trifluoromethyl)benzonitrile] | 0.021 | 0.529 | –
2 | CCC(Oc1ccc(C#N)c(C(F)(F)F)c1)c1cccc(O)c1 (racemic) [Example 11, 4-[1-(3-Hydroxyphenyl)propoxy]-2-(trifluoromethyl)benzonitrile] | 0.011 | > 1 | –
3 | C=CCC(Oc1ccc(C#N)c(C(F)(F)F)c1)c1cccc(O)c1 (racemic) [Example 17, 4-{[1-(3-Hydroxyphenyl)but-3-enyl]oxy}-2-(trifluoromethyl)benzonitrile] | 0.014 | 0.105 | –
4 | CC(C)CC(Oc1ccc(C#N)c(C(F)(F)F)c1)c1cccc(O)c1 (racemic) [Example 20, 4-[1-(3-Hydroxyphenyl)-3-methylbutoxy]-2-(trifluoromethyl)benzonitrile] | 0.183 | 0.04 | –
5 | COC(=O)c1ccc(C(C)Oc2ccc(C#N)c(C(F)(F)F)c2)cc1 (racemic) [Example 29, (±)-4-[1-(4-Cyano-3-trifluoromethyl-phenoxy)-ethyl]-benzoic Acid Methyl Ester] | – | 0.132 | 0.102
6 | CC(Oc1ccc(C#N)c(C(F)(F)F)c1)c1cccnc1 (racemic) [Example 33, 4-(1-Pyridin-3-yl-ethoxy)-2-trifluoromethyl-benzonitrile] | 0.192 | 0.063 | –
7 | CC(Oc1ccc(C#N)c(C(F)(F)F)c1)c1ccccn1 (racemic) [Example 35, 4-(1-Pyridin-2-yl-ethoxy)-2-trifluoromethyl-benzonitrile] | 0.18 | 0.254 | –
8 | CC(Oc1ccc(C#N)c(C(F)(F)F)c1)c1cccnc1 (single isomer, unassigned) [Example 34, 4-(1-Pyridin-3-yl-ethoxy)-2-trifluoromethyl-benzonitrile] | 0.141 | 0.094 | –
9 | CC(Oc1ccc(C#N)c(C(F)(F)F)c1)c1cccc(OC2CCCCO2)c1 (stereo not shown) [Example 7, 4-{1-[3-(Tetrahydro-2H-pyran-2-yloxy)phenyl]ethoxy}-2-(trifluoromethyl)benzonitrile] | – | – | 0.383
10 | CC(Oc1ccc(C#N)c(C(F)(F)F)c1)c1ccc(Cl)cc1 (stereo not shown) [Example 23, 4-[1-(4-Chloro-phenyl)-ethoxy]-2-trifluoromethyl-benzonitrile] | – | – | 0.307
11 | Cc1ccccc1C(C)Oc1ccc(C#N)c(C(F)(F)F)c1 (stereo not shown) [Example 27, 4-(1-o-Tolyl-ethoxy)-2-trifluoromethyl-benzonitrile] | – | – | 0.439
12 | CC(Oc1ccc(C#N)c(C(F)(F)F)c1)c1cccc(C(F)(F)F)c1 (stereo not shown) [Example 32, 2-Trifluoromethyl-4-[1-(3-trifluoromethyl-phenyl)-ethoxy]-benzonitrile] | – | – | 0.214
13 | C[C@@H](Oc1ccc(C#N)cc1Cl)c1ccccc1 [Example 38, (R)-3-Chloro-4-(1-phenyl-ethoxy)-benzonitrile] | 0.281 | – | –
14 | C[C@H](Oc1ccc(C#N)cc1Cl)c1ccccc1 [Example 39, (S)-3-Chloro-4-(1-phenyl-ethoxy)-benzonitrile] | 0.41 | – | –
15 | CC(Cc1ccccc1)(Oc1ccc(C#N)cc1Cl)c1ccccc1 (stereo not shown) [Example 42, 3-Chloro-4-(1-methyl-1,2-diphenyl-ethoxy)-benzonitrile] | – | – | 0.377
16 | COc1ccccc1COc1ccc(C#N)c(C(F)(F)F)c1 [Example 45, 4-(2-Methoxy-benzyloxy)-2-trifluoromethyl-benzonitrile] | – | > 1 | –
17 | CCC(C)(Oc1ccc(C#N)c(C(F)(F)F)c1)c1ccccc1 (stereo not shown) [Example 47, 4-(1-Methyl-1-phenyl-propoxy)-2-trifluoromethyl-benzonitrile] | – | – | 0.461
18 | Cc1cccc(COc2ccc(C#N)c(C(F)(F)F)c2)c1 [Example 52, 4-(3-Methyl-benzyloxy)-2-trifluoromethyl-benzonitrile] | – | – | 0.302
19 | Cc1cccc(C)c1C(C)Oc1ccc(C#N)c(Cl)c1 (stereo not shown) [Example 63, 2-Chloro-4-[1-(2,6-dimethyl-phenyl)-ethoxy]-benzonitrile] | – | – | 0.328
20 | COc1cc(OC(C)Cc2ccccc2)ccc1C#N (stereo not shown) [Example 71A, 2-Methoxy-4-(1-methyl-2-phenyl-ethoxy)-benzonitrile] | – | – | 0.306
21 | COc1ccc(CCOc2ccc(C#N)c(C(F)(F)F)c2)cc1 [Example 76, 4-[2-(4-Methoxy-phenyl)-ethoxy]-2-trifluoromethyl-benzonitrile] | – | – | 0.281
22 | CCCC(Oc1ccc(C#N)c(C(F)(F)F)c1)c1cccc(C)n1 (stereo not shown) [Example 86, 4-[1-(6-Methyl-pyridin-2-yl)-butoxy]-2-trifluoromethyl-benzonitrile] | – | – | 0.33
23 | CCC(Oc1ccc(C#N)c(C(F)(F)F)c1)c1cccc(C)n1 (stereo not shown) [Example 87, 4-[1-(6-Methyl-pyridin-2-yl)-propoxy]-2-trifluoromethyl-benzonitrile] | – | – | 0.483
